We go through five compounds from patent US8173693B2, “Benzenesulfonamide derivatives and pharmaceutical composition thereof” (Purzer Pharmaceutical Co., Ltd., priority 2010, dated 2012).

pIC50: −log10 of the molar value.

Data set [1] relates to Human gastric adenocarcinoma AGS cells. Briefly: SRB assay. The format is cell-based. To be noted: 48 hr.
The test system of data set [2] is Human colorectal adenocarcinoma HT-29 cells. Kind of data set: SRB assay. The format is cell-based. To be noted: 48 hr.
Data set [3] shares this test system. Briefly: SRB assay. The conditions noted are these: 48 hr. Type of data set: cell-based. On the procedure: (§1) Human Bladder Cancer TSGH cells, Human hepatoblastoma HepG2 cells, Human colorectal adenocarcinoma HT-29 cells, human nasopharyngeal carcinoma KB cells, Human gastric adenocarcinoma AGS cells, Human breast carcinoma MCF-7 cells, lung carcinoma A549 cells, and Human prostate carcinoma PC-3 cells were used in the preliminary cytotoxicity assays of the benzenesulfonamide derivatives of the present invention, and the inhibition activity against the tumor cells was evaluated.
(§2) All cell lines were maintained in RPMI 1640 supplied with 10% fetal bovine serum into 96-well microtiter plates and maintained in a humidified chamber at 37° C. containing 5% CO2. After 24 hr, cell lines in partial wells were fixed in situ with 10% trichloroacetic acid (TCA) to represent a measurement at the time of drug addition (T0). Then, cell lines in other wells were incubated with the benzenesulfonamide derivatives of the present invention for an additional 48 hr, and fixed in situ with 10% TCA to represent a measurement at the time of stopping reaction (Tx). After rinsing the plates with PBS and air-drying, 0.4% sulforhodamine B solution (weight per volume in 1% acetic acid) was added to each well and the plates were incubated for 10 min at room temperature. Unbound sulforhodamine B was removed with 1% acetic acid and the plates were air-dried. Cells bound with sulforhodamine B was subsequently solubilized with 10 mM Tris base (Trizma; Sigma). Cell proliferation was determined by measuring the optical density at 515 nm using a Thermomax microplate reader (Molecular Devices, Sunnyvale, Calif.). The half-inhibition concention (GI50) of the benzenesulfonamide derivatives of the present invention was obtained from the detected optical density.
This is another data set of the same source.

The subject of data set [4] is Human hepatoblastoma HepG2 cells. Kind of data set: SRB assay. To be noted: 48 hr. The format is cell-based. On the procedure: as §1, §2
For data set [5], the system named is Human breast carcinoma MCF-7 cells. Briefly: SRB assay. Type of data set: cell-based. To be noted: MCF7, 48 hr. The protocol:
as §1, §2

For data set [6], the system named is lung carcinoma A549 cells. Kind of data set: SRB assay. Type of data set: cell-based. To be noted: Homo sapiens, 48 hr. On the procedure:
as §1, §2

The subject of data set [7] is Human prostate carcinoma PC-3 cells. Briefly: SRB assay. Type of data set: cell-based. The conditions noted are these: Homo sapiens; for GI50: PC-3, 48 h; for pIC50: PC-3, 48 hr. The protocol:
as §1, §2

In data set [8] the test system is Human gastric adenocarcinoma AGS cells. Kind of data set: SRB assay. The format is cell-based. To be noted: 48 hr. The protocol:
as §1, §2
The source holds these as a separate data set.

Data set [9] concerns Human breast carcinoma MCF-7 cells. Briefly: SRB assay. The conditions noted are these: MCF7, 48 hr. Type of data set: cell-based. The source holds these as a separate data set.
The test system of data set [10] is Human hepatoblastoma HepG2 cells. Briefly: SRB assay. The conditions noted are these: 48 hr. Type of data set: cell-based. The source holds these as a separate data set.
Data set [11] concerns lung carcinoma A549 cells. Kind of data set: SRB assay. Type of data set: cell-based. To be noted: Homo sapiens, 48 hr. This is another data set of the same source.

In turn, `Cc1ccc(C)c2c1[nH]c1c(N(C)S(=O)(=O)c3ccc(Cl)s3)cccc12` [Compound 15k, 5-Chloro-thiophene-2-sulfonic acid (5,8-dimethyl-9H-carbazol-1-yl)-methyl-amide] had a melting point of 179 to 181 °C. For the same compound, the pIC50 in [1] was < 5.00. Besides, the negative logarithm of the IC50 (pIC50) in data set [2] was 5.41. Halving of growth in [3] (GI50) required 0.3 µM. In addition, the GI50 in data set [4] is 0.7 µM. Further, the 50% growth inhibitory concentration (GI50) in data set [5] was > 10 µM. Further, halving of growth in data set [6] (GI50) required 8.1 µM. Also, in data set [7], growth was halved (GI50) at 7 µM and the pIC50 is < 5.00. This compound had a GI50 in data set [8] of 7.5 µM. Also, the pIC50 in data set [9] was < 5.00. This compound had a pIC50 in data set [10] of 5.80. In [11], the pIC50 is < 5.00.
As to `Cc1ccc(C)c2c1[nH]c1c(NS(=O)(=O)c3ccc(Cl)s3)cccc12` [Compound 6k, 5-Chloro-thiophene-2-sulfonic acid (5,8-dimethyl-9H-carbazol-1-yl)amide], the melting point lay in the range of 232 to 234 °C. The pIC50 in [1] was < 5.00. Moreover, in [2], the negative-log IC50 (pIC50) is 5.25. In addition, the GI50 in data set [3] turned out to be 2.1 µM. In data set [4], growth was halved (GI50) at 1.3 µM. In [5], the GI50 was > 10 µM. Further, growth in [6] was halved (GI50) at 6.5 µM. In addition, in [7], halving of growth (GI50) required 4.6 µM and the pIC50 was < 5.00. This compound also registered a GI50 in data set [8] of 6.7 µM. Besides, the pIC50 in data set [9] was < 5.00. Also, the pIC50 in data set [10] is 5.57. The compound further had a pIC50 in [11] of 5.00.
`Cc1ccc(C)c2c1[nH]c1c(NS(=O)(=O)c3cccc(C(F)(F)F)c3)cccc12` [Compound 6j, N-(5,8-Dimethyl-9H-carbazol-1-yl)-3-trifluoromethylbenzenesulfonamide]: the melting point lay within 217 to 218 °C. In addition, the pIC50 in [1] was < 5.00. The pIC50 in data set [2] was < 5.00. For the same compound, the GI50 in [3] is > 10 µM. Also, the GI50 in data set [4] was > 10 µM. Moreover, the GI50 in data set [5] is > 10 µM. In [6], the GI50 is > 10 µM. Also, in data set [7], the GI50 was > 10 µM and the pIC50 was < 5.00. In addition, in data set [8], the GI50 is > 10 µM. Moreover, the pIC50 in data set [9] is < 5.00. Further, the pIC50 in data set [10] is < 5.00. Besides, in data set [11], the pIC50 was < 5.00.
The compound `O=S(=O)(Nc1cccc2c1[nH]c1ccccc12)c1cccc(C(F)(F)F)c1` [Compound 21b, N-(9H-Carbazol-1-yl)-3-trifluoromethylbenzenesulfonamide] registered a melting point of 188 to 190 °C. Further, the pIC50 in data set [1] is < 5.00. Also, the pIC50 in data set [2] was < 5.00. Further, the GI50 in data set [3] is > 10 µM. Further, the GI50 in [4] was > 10 µM. In data set [5], the GI50 is > 10 µM. Besides, the GI50 in data set [6] is > 10 µM. For the same compound, in [7], the GI50 is > 10 µM and the pIC50 is < 5.00. The GI50 in data set [8] was > 10 µM. Moreover, the pIC50 in data set [9] is < 5.00. Besides, the pIC50 in [10] is < 5.00. For the same compound, the pIC50 in data set [11] was < 5.00.
In turn, `CCN(c1cccc2c1[nH]c1c(C)ccc(C)c12)S(=O)(=O)c1ccc(OC)cc1` [Compound 16c, N-(5,8-Dimethyl-9H-carbazol-1-yl)-N-ethyl-4-methoxybenzenesulfonamide] gave a melting point of 151 to 152 °C. In data set [1], this compound had a pIC50 of 6.00. For the same compound, the pIC50 in data set [2] was 6.52. Also, the GI50 in data set [3] came to 0.05 µM. In [4], this compound displayed a GI50 of 0.04 µM. In data set [5], this compound returned a GI50 of 0.4 µM. Moreover, in data set [6], the concentration for 50% growth inhibition (GI50) worked out at 0.4 µM. In data set [7], this compound had a GI50 of 0.06 µM and a negative-log IC50 (pIC50) of 6.52. The compound further registered a GI50 in data set [8] of 0.4 µM. The same compound showed a pIC50 in [9] of 6.10. The same compound showed a pIC50 in [10] of 7.10. Besides, the pIC50 in data set [11] was < 5.00.
